Data from ChEMBL document CHEMBL3217407, “Adamantane substituted aminocyclitols as pharmacological chaperones for Gaucher disease” (Medchemcomm, 2013).
Calls of active or inactive are those of the source. No cut-off for these calls is given here.

Tests used:
[1] = target: T1, Lysosomal acid glucosylceramidase (Homo sapiens) (UniProt P04062); conditions: 50 uM
T1 sequence (whole entry): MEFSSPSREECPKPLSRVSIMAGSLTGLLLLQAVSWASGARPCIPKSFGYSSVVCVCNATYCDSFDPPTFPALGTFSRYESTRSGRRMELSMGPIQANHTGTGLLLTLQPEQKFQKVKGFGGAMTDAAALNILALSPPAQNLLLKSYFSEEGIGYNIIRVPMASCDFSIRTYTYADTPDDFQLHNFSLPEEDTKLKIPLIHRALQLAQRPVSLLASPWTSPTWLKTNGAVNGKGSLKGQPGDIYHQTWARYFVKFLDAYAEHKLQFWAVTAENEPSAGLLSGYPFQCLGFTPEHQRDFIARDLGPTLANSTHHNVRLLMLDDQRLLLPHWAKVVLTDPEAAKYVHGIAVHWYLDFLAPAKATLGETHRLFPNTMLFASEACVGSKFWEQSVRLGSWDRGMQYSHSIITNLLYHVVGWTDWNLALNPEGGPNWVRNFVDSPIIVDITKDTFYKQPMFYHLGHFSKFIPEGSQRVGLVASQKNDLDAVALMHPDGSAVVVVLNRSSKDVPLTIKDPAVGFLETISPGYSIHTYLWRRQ
Description: Inhibition of imiglucerase in human fibroblasts using 4-methylumbelliferyl-beta-D-glucopyranoside as substrate at 50 uM after 24 hrs

[2] = Cytotoxicity against human fibroblasts up to 300 uM after 24 hrs by MTT assay; assay type: cell-based; conditions: fibroblast
[3] = target: Alpha-galactosidase (Coffea arabica) (UniProt Q42656); assay: Inhibition of coffee beans alpha-galactosidase at 200 uM
[4] = target: T2, Beta-galactosidase (Bos taurus) (UniProt Q58D55); assay: Inhibition of bovine liver beta-galactosidase at 200 uM
T2 sequence (whole entry): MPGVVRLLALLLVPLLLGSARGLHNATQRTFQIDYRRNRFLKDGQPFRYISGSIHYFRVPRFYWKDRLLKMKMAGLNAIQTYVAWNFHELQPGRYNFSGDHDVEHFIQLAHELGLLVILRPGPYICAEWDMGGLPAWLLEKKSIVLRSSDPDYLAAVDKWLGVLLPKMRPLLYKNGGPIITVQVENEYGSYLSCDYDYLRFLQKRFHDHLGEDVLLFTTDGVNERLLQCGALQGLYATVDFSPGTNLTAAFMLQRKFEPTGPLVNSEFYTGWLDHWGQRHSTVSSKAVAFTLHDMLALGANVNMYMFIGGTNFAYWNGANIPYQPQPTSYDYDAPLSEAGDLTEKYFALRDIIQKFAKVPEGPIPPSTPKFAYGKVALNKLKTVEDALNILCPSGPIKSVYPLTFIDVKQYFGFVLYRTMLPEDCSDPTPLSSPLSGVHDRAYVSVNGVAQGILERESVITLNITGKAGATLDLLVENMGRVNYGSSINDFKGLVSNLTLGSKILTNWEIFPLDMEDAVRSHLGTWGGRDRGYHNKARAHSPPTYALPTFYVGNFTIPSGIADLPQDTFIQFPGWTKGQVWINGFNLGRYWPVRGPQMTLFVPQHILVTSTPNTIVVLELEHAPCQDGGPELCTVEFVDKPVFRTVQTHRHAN

Saccharomyces cerevisiae = assay: Inhibition of yeast alpha-glucosidase at 200 uM
[5] = target: T1, Lysosomal acid glucosylceramidase (Homo sapiens); assay: Ratio of IC50 for human recombinant imiglucerase at pH 5.2 to IC50 for human recombinant imiglucerase at pH 7
[6] = target: T1, Lysosomal acid glucosylceramidase (Homo sapiens); assay: Inhibition of imiglucerase in human fibroblasts using 4-methylumbelliferyl-beta-D-glucopyranoside as substrate at 200 uM after 24 hrs
[7] = target: T3, Lysosomal acid glucosylceramidase (Homo sapiens, UniProt P04062); assay: Competitive inhibition of human recombinant imiglucerase using 4-methylumbelliferyl-beta-D-glucopyranoside as substrate preincubated for 30 mins at pH 7 before substrate addition measured after 10 mins by Lineweaver-Burk or Dixon plot analysis
T3 sequence (P04062 whole entry): T1 sequence (whole entry)

[8] = target: T3, Lysosomal acid glucosylceramidase; assay: Competitive inhibition of human recombinant imiglucerase using 4-methylumbelliferyl-beta-D-glucopyranoside as substrate preincubated for 30 mins at pH 5.2 before substrate addition measured after 10 mins by Lineweaver-Burk or Dixon plot analysis
[9] = target: T3, Lysosomal acid glucosylceramidase; assay: Inhibition of human recombinant imiglucerase using 4-methylumbelliferyl-beta-D-glucopyranoside as substrate preincubated for 30 mins at pH 7 before substrate addition measured after 10 mins
[10] = target: T3, Lysosomal acid glucosylceramidase; assay: Inhibition of human recombinant imiglucerase using 4-methylumbelliferyl-beta-D-glucopyranoside as substrate preincubated for 30 mins at pH 5.2 before substrate addition measured after 10 mins

Chain of Alpha-galactosidase (Coffea arabica) (Q42656 16-378 limits assumed): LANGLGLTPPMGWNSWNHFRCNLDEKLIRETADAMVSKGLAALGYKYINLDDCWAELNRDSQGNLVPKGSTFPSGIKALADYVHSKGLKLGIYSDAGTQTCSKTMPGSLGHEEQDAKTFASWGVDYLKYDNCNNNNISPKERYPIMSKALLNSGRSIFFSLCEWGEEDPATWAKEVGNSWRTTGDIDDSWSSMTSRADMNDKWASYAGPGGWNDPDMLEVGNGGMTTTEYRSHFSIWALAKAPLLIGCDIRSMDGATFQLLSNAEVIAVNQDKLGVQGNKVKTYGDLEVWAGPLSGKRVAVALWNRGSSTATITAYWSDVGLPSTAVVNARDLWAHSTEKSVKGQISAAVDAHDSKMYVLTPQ

| Compound | inhibition [1] | Activity [2] | inhibition [3] | inhibition [4] | inhibition (Saccharomyces cerevisiae) | Ratio IC50 [5] | inhibition [6] | Ki [7] | Ki [8] | IC50 [9] | IC50 [10] |
| --- | --- | --- | --- | --- | --- | --- | --- | --- | --- | --- | --- |
| CCCCCCCCCN[C@H]1[C@H](O)[C@@H](O)[C@H](O)[C@@H](O)[C@@H]1O | 29% | – | – | – | – | – | – | – | – | – | – |
| O=C(CCCN[C@@H]1[C@H](O)[C@H](O)[C@@H](O)[C@H](O)[C@H]1O)NC12CC3CC(CC(C3)C1)C2 | – | Non-toxic | inactive | 24% | inactive | 12 | 1% | 0.25 µM | 2.9 µM | 0.37 µM | 5.4 µM |
| O=C(CCCN[C@H]1[C@H](O)[C@@H](O)[C@H](O)[C@@H](O)[C@@H]1O)NC12CC3CC(CC(C3)C1)C2 | – | Non-toxic | inactive | inactive | inactive | 4 | 0% | 45 µM | 183 µM | 58 µM | 257 µM |
| CCCCCCCCCN[C@@H]1[C@H](O)[C@H](O)[C@@H](O)[C@H](O)[C@H]1O | 95% | – | – | – | – | – | – | – | – | – | – |
